Results as given in patent US4430341A, “Water soluble pesticidal quaternary ammonium salt compounds” (Union Carbide Corporation, priority 1977, dated 1984).

Legend:
[1] = test system: bean aphid (Aphis fabae Scop.); assay: Bean Aphid Foliage Spray Test; type: in vivo; parameters: key: A: Excellent control; B: Partial control; C: No control; details: 500 parts per million; 24 hour holding period
Description: (§1) The compound of EXAMPLE IV was evaluated to determine its pesticidal activity against mites and certain insects, including an aphid, a caterpillar, a beetle and a fly.
(§2) Suspensions of the test compound was prepared by dissolving one gram of compound in 50 milliliters of acetone in which had been dissolved 0.1 gram (10 percent of the weight of compound) of an alkylphenoxy polyethoxyethanol surfactant, as an emulsifying or dispersing agent. The resulting solution was mixed into 150 milliliters of water to give roughly 200 of milliliters of a suspension containing the compound in finely divided form. The thus-prepared stock suspension contained 0.5 percent by weight of test compound. The test concentrations in parts per million by weight employed in the tests described hereinbelow were obtained by appropriate dilutions of the stock suspension with water. The test procedures were as follows.
Adults and nymphal stages of the bean aphid (Aphis fabae Scop.) reared on potted dwarf nasturtium plants at 65°-70° F. and 50-70 percent relative humidity, constituted the test insects. […]
The potted plants (one pot per compound tested) infested with 100-150 aphids, were placed on a revolving turntable and sprayed with 100-110 milliliters of test compound formulation by use of a DeVilbiss spray gun set at 40 psig. air pressure. […] Percent mortality was recorded for various concentration levels. […]

[2] = test system: two-spotted mite (Tetranychus urticae Koch); assay: Mite Foliage Spray Test; type: in vivo; parameters: key: A: Excellent control; B: Partial control; C: No control; details: 500 parts per million; six days
Description: as §1, §2
Adults and nymphal stages of the two-spotted mite (Tetranychus urticae Koch), reared on Tendergreen bean plants at 80±5 percent relative humidity, were the test organisms. Infested leaves from a stock culture were placed on the primary leaves of two bean plants six to eight inches in height, growing in a two- and-a-half inch clay pot. 150-200 mites, a sufficient number for testing, transferred from the excised leaves to the fresh plants in a period of twenty-four hours. […]

[3] = test system: southern armyworm (Prodenia Eridania, (Cram.)); assay: Southern Armyworm Leaf Spray Test; type: in vivo; parameters: key: A: Excellent control; B: Partial control; C: No control; details: 500 parts per million; three days
Description: as §1, §2
Larvae of the southern armyworm (Prodenia Eridania, (Cram.), reared on Tendergreen bean plants at a temperature of 80±5° F. and relative humidity of 50±5 percent, constituted the test insects. […]
This application which lasted 25 seconds was sufficient to wet plants to run-off. […] Percent mortality was recorded for various concentration levels. […]

[4] = test system: Mexican bean beetle (Epilachna varivestis, Muls.); assay: Mexican Bean Beetle Leaf Spray Test; type: in vivo; parameters: key: A: Excellent control; B: Partial control; C: No control; details: 500 parts per million; three days
Description: as §1, §2
Fourth instar larvae of the Mexican bean beetle (Epilachna varivestis, Muls.) reared on Tendergreen bean plants at a temperature of 80±5° and 50±5 percent relative humidity, were the test insects.
The test compound was formulated by diluting the stock suspension with water to give a suspension containing 500 parts of test compound per million parts of final formulation. […]

[5] = test system: house flies (Musca domestica, L.); assay: Fly Bait Test; type: in vivo; parameters: key: A: Excellent control; B: Partial control; C: No control; details: 500 parts per million in sugar solution bait; twenty four hours
Description: as §1, §2
Four to six day old adult house flies (Musca domestica, L.) reared according to the specifications of the Chemical Specialties Manufacturing Association (Blue Book, McNair-Dorland Co., N.Y., 1954; pages 243-244, 261) under controlled conditions of 80±° F. and 50±5 percent relative humidity, were the test insects. […]

Bean = assay: Phytotoxicity test, Bean; type: in vivo; parameters: key: 1: no perceptible injury; 2: intermediate degrees of injury based upon the number and extent to which leaves were injured; 3: intermediate degrees of injury based upon the number and extent to which leaves were injured; 4: intermediate degrees of injury based upon the number and extent to which leaves were injured; 5: the plant was dead; details: 2500 parts per million; ten days
Description: (§3) Experiments were also conducted to determine the phytotoxicity of a representative composition with respect to healthy fresh plants. A solution of the compound prepared as described above to provide a concentration of 2500 parts per million of the test compound. The test plants were sprayed in accordance with the procedure described above for the Mite Foliage Spray Test so as to deliver approximately 100 milliliters of test solution to the leaves of each plant tested. The sprayed plants and controls were set aside for approximately one hour to allow the solutions to dry and were then placed in the greenhouse. After ten days the plants were visually inspected to determine the extent of foliage injury. A rating of 1 indicates no perceptible injury; 5 indicates the plant was dead and ratings of 2, 3 and 4 indicate intermediate degrees of injury based upon the number and extent to which leaves were injured.

Cot. [6] = assay: Phytotoxicity test, Cot. (second column); type: in vivo; parameters: key: 1: no perceptible injury; 2: intermediate degrees of injury based upon the number and extent to which leaves were injured; 3: intermediate degrees of injury based upon the number and extent to which leaves were injured; 4: intermediate degrees of injury based upon the number and extent to which leaves were injured; 5: the plant was dead; details: 2500 parts per million; ten days
Description: as §3

Tom. = assay: Phytotoxicity test, Tom.; type: in vivo; parameters: key: 1: no perceptible injury; 2: intermediate degrees of injury based upon the number and extent to which leaves were injured; 3: intermediate degrees of injury based upon the number and extent to which leaves were injured; 4: intermediate degrees of injury based upon the number and extent to which leaves were injured; 5: the plant was dead; details: 2500 parts per million; ten days
Description: as §3

Cot. [7] = assay: Phytotoxicity test, Cot. (fourth column); type: in vivo; parameters: key: 1: no perceptible injury; 2: intermediate degrees of injury based upon the number and extent to which leaves were injured; 3: intermediate degrees of injury based upon the number and extent to which leaves were injured; 4: intermediate degrees of injury based upon the number and extent to which leaves were injured; 5: the plant was dead; details: 2500 parts per million; ten days
Description: as §3

Soybean = assay: Phytotoxicity test, Soybean; type: in vivo; parameters: key: 1: no perceptible injury; 2: intermediate degrees of injury based upon the number and extent to which leaves were injured; 3: intermediate degrees of injury based upon the number and extent to which leaves were injured; 4: intermediate degrees of injury based upon the number and extent to which leaves were injured; 5: the plant was dead; details: 2500 parts per million; ten days
Description: as §3

Water solubility = type: physicochemical; details: 25° C.

CN(C(=O)C[N+](C)(C)CCOCC[N+](C)(C)CC(=O)N(C)C(=O)Oc1cccc2ccccc12)C(=O)Oc1cccc2ccccc12 [EXAMPLE IV]
Insecticidal and Miticidal: Aphid [1]: B
Insecticidal and Miticidal: Mite [2]: C
Insecticidal and Miticidal: So. Army Worm [3]: A
Insecticidal and Miticidal: Mexican Bean Beetle [4]: A
Insecticidal and Miticidal: House Fly [5]: A
Herbicidal: Bean (Bean): 2
Herbicidal: Cot. (Cot. [6]): 1
Herbicidal: Tom. (Tom.): 1
Herbicidal: Cot. (Cot. [7]): 2
Herbicidal: Soybean (Soybean): 2
% Water Solubility (Water solubility): 20%
solubility (Water solubility; water): 200 mg/mL
